“And” between values parts separate entries of the source, which are not always exact repeats. Identical values can stand only once.
What was measured:
CEM cells = assay: Proliferation assay (CellTiter-Glo, 72 h); assay type: cell-based, human
Description: (§1) Cells were plated in 384-well plates (1000 cells/well for suspension cell lines and 500 cells/well for adherent cell lines in 30 µl volume). Drugs were serially diluted to the desired concentrations and an equivalent volume of DMSO was added to vehicle control. Ten microliter of the 4× diluted drugs were added to each well. Following 72 h incubation, ATP content was measured using CellTiter-Glo reagent according to manufacturer’s instructions (Promega, CellTiter-Glo Luminescent Cell Viability Assay), and analyzed by SpectraMax luminometer (Molecular Devices). IC50 values, concentrations required to inhibit proliferation by 50% compared to DMSO treated cells, were calculated using Prism 6.0 h (Graphpad Software).

asynchronous CEM cells = assay: Quantitative global proteomics (nLC-MS/MS), asynchronous cells; assay type: cell-based, human
Description: To investigate the molecular mechanisms underlying the metabolic consequences of ATR and dCK inhibition, global changes in protein expression were assessed in CEM cells using quantitative nano-LC tandem MS (nLC-MS/MS) (Fig. 2a). Chemical isotope coding following reductive dimethylation of peptide N-termini and lysine primary amines with differential stable isotopes (light:medium:heavy) was used to compare expression of experimental (VE-822, dCKi and VE-822 + dCKi) samples to controls (untreated, NT) by mixing equal proportions for triplex nLC-MS/MS quantitative analyses. The data set was filtered for proteins identified in all treatment groups in three independent experiments with coefficients of variation <20%. This yielded 1757 proteins with relative fold changes in treated vs. untreated cells ranging from 0.45 to 1.83. […] Protein levels of both RNR subunits, RRM1 and RRM2, as well as thymidylate synthase decreased by more than 20% following ATR inhibition (Fig. 2c). Changes in the expression of de novo enzymes observed in synchronous cells also occurred with ATR inhibition in asynchronous CEM cells (Fig. 2d and Supplementary Data 3), thereby arguing against the possibility of experimental artifacts introduced by Palbociclib-mediated cell cycle synchronization. The reduction in RRM2 levels induced by ATR inhibition was accompanied by an ~ 50% decrease in the phosphorylation of RRM2 on threonine 33 (pT33) (Fig. 2e), a phosphosite previously linked to the RRM2 stability. […]
Proteomic analyzes. CCRF-CEM cells were treated ± with a CDK4/6 inhibitor, PD-0332991 (Selleckchem) for 18 h to arrest at G1 phase. Cells were then washed twice with PBS and released in fresh media with treatment at a density of 1 x 10^6 cells/mL. Cells were collected at 12 h, washed twice with ice-cold PBS, and lysed by trituration using 1 mL per 5 x 10^7 cells of 0.5% sodium deoxycholate, 12 mM sodium lauryl sarcosine, and 50 mM triethylammonium bicarbonate, pH 8.0. Lysates were heated at 95 °C for 5 min and water bath sonicated at room temperature (RT) for 5 min. Bicinchoninic acid protein assay (Pierce) was performed to determine protein concentration. Disulfide bridges were reduced with 5 mM tris(2-carboxyethyl)phosphine (final concentration) at RT for 30 min with subsequent treatment with 10 mM iodoacetamide (final concentration) at RT in the dark for 30 min. Solutions were diluted 1:5 (v:v) with 50 mM triethylammonium bicarbonate. Proteins were cleaved with sequencing grade trypsin (Promega) at 1:100 (enzyme:protein) for 4 h at 37 °C followed by a second aliquot of trypsin 1:100 (enzyme:protein) overnight at 37 °C. Samples were acidified with 0.5% trifluoroacetic acid (final concentration), vortexed rapidly for 5 min, and centrifuged (16,000 x g for 5 min, RT) to pellet sodium deoxycholate. Supernatants were transferred to new microcentrifuge tubes and 20 µg of total peptide were desalted using C18 StageTips as previously described2. On-column dimethyl labeling using C18 StageTips was performed as previously described3. Briefly, StageTips were equilibrated with 20 μL of 250 mM 2-(N-morpholino)ethanesulfonic acid (MES) pH 5.5. Tryptic peptides were dimethyl labeled using 60 mM sodium cyanoborohydride, 0.4% formaldehyde, and 250 mM MES pH 5.5 for 10 min. Dimethyl labeled peptides were eluted from StageTips using 20 μL of 80% acetonitrile with 0.1% trifluoroacetic acid and lyophilized to dryness. […]

dCK pS74 = assay: Phosphoproteomic nLC-MS/MS analysis of dCK phosphorylation; assay type: cell-based, human; parameters: key to dCK pS74: ↓: partial decrease/inhibition; ↓↓↓: nearly complete inhibition; ↑: increase; ⟷: no change
Description: against both the Uniprot human FASTA database and a decoy database of the Uniprot human database which read from C-terminus to N-terminus; Percolator was used to filter the data at 1% FDR at both the peptide and […]
Phosphoproteomic analyses. CCRF-CEM cells were prepared same as the asynchronous CEM cells total protein digests above, except that a total of 7.5 mg total protein from 1 x 10^8 cells was collected per treatment condition for phosphoproteomic analysis. tC18 Sep-Pak cartridges (Waters) were used for peptide desalting and Pierce Quantitative Colorimetric Peptide Assay was performed prior to phosphopeptide enrichment.
Hydrophilic interaction chromatography (HILIC) and immobilized metal affinity chromatography (IMAC) were performed same as previously described4. Data dependent nLC-MS/MS was performed on Thermo QExactive Plus same as above. […] Identified phosphopeptides were manually quantified by area-based extracted ion chromatograms of the monoisotopic peak. […]

p185BCR-ABL Arf–/– cells = assay: Proliferation assay (CellTiter-Glo, 72 h); assay type: cell-based; details: Mus musculus
Description: as §1

[1] = tested on: p185BCR-ABL Arf–/– pre-B-ALL; assay: Systemic primary pre-B-ALL leukemia model, survival, bioluminescence, body weight; assay type: in vivo
Description: For development of systemic leukemia model, C57Bl/6 female mice were injected intravenously with 50,000 firefly luciferase expressing p185^BCR-ABL Arf ^−/− pre-B-ALL cells[12], [31]. The leukemic burden was monitored using bioluminescence imaging. All drug treatments were performed in an oral formulation consisting of PEG-200, Transcutol, Labrasol and Tween-80 blended in a ratio of 5:3:1:1. The oral gavage volume was 50 µl per dose (a detailed description is available in the Supplementary Information).
All C57BL/6 female mice were purchased from the UCLA Radiation Oncology breeding colony. […] For oral administration, single agent or combination of drugs were solubilized in a formulation consisting of the following: PEG-200: Transcutol: Labrasol: Tween-80 mixed in 5:3:1:1 ratio. For i.p. administration, the drugs were solubilized in PEG-400 and 1 mM Tris-HCl in a 1:1 (v:v) ratio. Dasatinib (LC Laboratories) was solubilized in 80 mM citric acid (pH 3.1) and was administered at a dose of 10 mg kg^–1 by oral gavage. 2 × 10^5 luciferase expressing p185^BCR-ABL Arf ^−/− pre-B-ALL cells were injected intravenously into C57BL/6 female mice for leukemia induction. […] The mice were observed daily and those that became moribund during the trials, (paralysis of hind limbs, significant body weight loss) were sacrificed immediately.
Mice were anesthetized with 2% isoflurane followed by intraperitoneal injection of 50 μl (50 mg ml^−1) substrate D-luciferin (Sigma, #L9504). The mice were imaged with the IVIS 100 Bioluminescence Imaging scanner 10 min after luciferin administration. All mice were imaged in groups of five with 1-minute exposure time, and the images were acquired at low binning.

[2] = 1 µM VE-822, 12 h, analyses #1-#3

Row | Compound | IC50 (CEM cells) | Protein expression level normalized to control (NT): Apoptosis regulatory protein Siva (SIVA1) (asynchronous CEM cells; [2]) | Protein expression level normalized to control (NT): Aspartate--tRNA ligase, cytoplasmic (DARS) (asynchronous CEM cells; [2]) | Protein expression level normalized to control (NT): Eukaryotic translation initiation factor 2 subunit 3 (EIF2S3;EIF2S3L) (asynchronous CEM cells; [2]) | Protein expression level normalized to control (NT): GA-binding protein alpha chain (GABPA) (asynchronous CEM cells; [2]) | observed fold decrease in total RRM2 protein (proteomic nLC-MS/MS) (asynchronous CEM cells; asynchronous CEM, VE-822 1 µM, 12 h) | decrease in dCK pS74 (fold) (dCK pS74; VE-822-treated leukemia cells) | dCK pS74 (dCK pS74; summary Fig. 2g, CEM cells) | IC50 (p185BCR-ABL Arf–/– cells) | efficacy in vivo of VE-822 alone ([1]; VE-822 40 mg kg–1 once daily) | time by which all treated mice died of leukemia ([1]; after inoculation, VE-822 40 mg kg–1 once daily) | Median survival ([1]; after treatment initiation, 40 mg kg–1 day–1 VE-822, n = 6)
1 | NC(=S)N/N=C/c1ncccc1N [3-AP] | 1060 nM |  |  |  |  |  |  |  |  |  |  | 
2 | CNCc1ccc(-c2cc(-c3nc(-c4ccc(S(=O)(=O)C(C)C)cc4)cnc3N)on2)cc1 [VE-822] |  | 0.5843 and 0.5702 and 0.5605 | 0.9056 and 0.9095 | 0.9499 and 0.9479 and 0.9485 | 0.6147 and 0.6159 and 0.6369 | 0.77 fold | two-fold | ↓ | ~300 nM | only marginally efficacious | ≤ 38 days | 32.5 days
